Patent publication US5616606A, “Oligopeptide antiretroviral agents” (priority 1995, dated 1997)
Where “and” joins values, the source holds several entries; their conditions need not be identical. Equal entries are not always repeated.

Key:
HBV = assay: inhibition of HBV DNA replication in 2.2.15 cell cultures; format: cell-based; details: for INT[…] DNA MONO.: 24 hours following the 9th day of treatment; for INT[…] DNA MONO. / HBV VIRION DNA DAY 0 / HBV VIRION DNA DAY 9 / HBV VIRION DNA DAY 6: single well, dihydrochloride
[1] = solubility in DMSO, MeOH, H2O; format: physicochemical
HIV-1 = details: for Anti-HIV-1 Activity (National Cancer Institute Designation): inactive, moderate or active
2.2.15 cells = assay: toxicity analysis, neutral red dye uptake in 2.2.15 cells; details: triplicate, ± standard deviation
calf thymus DNA = assay: ethidium displacement assay, drug-DNA binding constant, calf thymus DNA; details: relative to ethidium 10^7 M^-1, average of repeat measurements
[2] = test system: Moloney murine leukemia virus (MLV); assay: anti-Moloney murine leukemia virus (MLV) plaque test; format: cell-based; details: anti-MLV plaque count
SC-1 cells = assay: toxicity TD50 reported with the anti-MLV test; details: Table IV
poly(dA-dT) = assay: ethidium displacement assay, poly(dA-dT); details: relative to ethidium 9.5 × 10^6 M^-1, average of repeat measurements
[3] = 50 μM, zero = undetectable, cutoff 0.1 pg/ml

| Compound | INT[…] DNA MONO. (HBV; 10 μM) | HBV VIRION DNA DAY 0 (HBV; 10 μM) | HBV VIRION DNA DAY 9 (HBV; 10 μM) | INT[…] DNA MONO. (HBV; 50 μM) | HBV VIRION DNA DAY 0 (HBV; 50 μM) | HBV VIRION DNA DAY 6 (HBV; 50 μM) | HBV VIRION DNA DAY 9 (HBV; [3]) | Anti-HIV-1 Activity (National Cancer Institute Designation) (HIV-1) | NEUTRAL RED DYE UPTAKE (2.2.15 cells; 10 μg/ml) | NEUTRAL RED DYE UPTAKE (2.2.15 cells; 30 μg/ml) | NEUTRAL RED DYE UPTAKE (2.2.15 cells; 100 μg/ml) | NEUTRAL RED DYE UPTAKE (2.2.15 cells; 300 μg/ml) | DNA Binding Constant (calf thymus DNA) | also measured |
| --- | --- | --- | --- | --- | --- | --- | --- | --- | --- | --- | --- | --- | --- | --- |
| Cl.Cl.Cn1cc(NC(=O)c2cc(NC(=O)Nc3cc(C(=O)Nc4cc(C(=O)NCCC(=N)N)n(C)c4)n(C)c3)cn2C)cc1C(=O)NCCC(=N)N [Compound 3, N,N'-Di(1-methyl-2-[1-methyl-2-carboxamido(3-propionamidine)-4-pyrrole]-4-pyrrolyl)urea dihydrochloride] | 2.8 pg/μg CELL DNA and 2.2 pg/μg CELL DNA and 2.6 pg/μg CELL DNA and 2.5 pg/μg CELL DNA | 57 pg/ml CULTURE MEDIUM and 64 pg/ml CULTURE MEDIUM and 74 pg/ml CULTURE MEDIUM and 60 pg/ml CULTURE MEDIUM | 69 pg/ml CULTURE MEDIUM and 74 pg/ml CULTURE MEDIUM and 94 pg/ml CULTURE MEDIUM and 92 pg/ml CULTURE MEDIUM | 2.9 pg/μg CELL DNA and 2.2 pg/μg CELL DNA and 2.4 pg/μg CELL DNA | 58 pg/ml CULTURE MEDIUM and 68 pg/ml CULTURE MEDIUM and 81 pg/ml CULTURE MEDIUM | 67 pg/ml CULTURE MEDIUM and 44 pg/ml CULTURE MEDIUM and 78 pg/ml CULTURE MEDIUM and 76 pg/ml CULTURE MEDIUM | 16 pg/ml CULTURE MEDIUM and 13 pg/ml CULTURE MEDIUM and 19 pg/ml CULTURE MEDIUM and 10 pg/ml CULTURE MEDIUM | Moderate | 99 ± 1 % OF CONTROL | 99 ± 1 % OF CONTROL | 99 ± 2 % OF CONTROL | 82 ± 2 % OF CONTROL | 5.6e+07 M⁻¹ | effect on HBV replication (in words) (HBV; tested at 50 and 10 μM, compared with 2',3'-ddC): weak inhibitor; Solubility in DMSO ([1]; DMSO): good; Solubility in H2O ([1]; H2O): good; EC50 (HIV-1; Table XI): 11.9 µM |
| Cl.Cl.Cn1cc(NC(=O)c2cc(NC(=O)CCC(=O)Nc3cc(C(=O)Nc4cc(C(=O)NCCC(=N)N)n(C)c4)n(C)c3)cn2C)cc1C(=O)NCCC(=N)N [Compound 5] | – | – | – | – | – | – | – | Moderate | 99 ± 2 % OF CONTROL | 100 ± 1 % OF CONTROL | – | – | 7.2e+07 M⁻¹ | – |
| Cl.Cl.Cn1cc(NC(=O)c2nc(NC(=O)/C=C\C(=O)Nc3cn(C)c(C(=O)Nc4cn(C)c(C(=O)NCCC(=N)N)n4)n3)cn2C)nc1C(=O)NCCC(=N)N [Compound 39, Bis-Lexitropsin] | – | – | – | – | – | – | – | – | – | – | – | – | – | Activity, MIC50 [2]: > 100.00 µg/mL; Toxicity, TD50 (SC-1 cells): > 100.00 ug/mL^-1 |
| Cl.Cl.Cn1cc(NC(=O)c2cc(NC(=O)CC(=O)Nc3cc(C(=O)Nc4cc(C(=O)NCCC(N)=O)n(C)c4)n(C)c3)cn2C)cc1C(=O)NCCC(N)=O [Compound 4, N,N'-Di(1-methyl-2-[1-methyl-2-carboxamido(3-proprionamide)-4-pyrrole]-4-pyrrolyl)malonamide dihydrochloride] | 2.3 pg/μg CELL DNA and 2.8 pg/μg CELL DNA and 2.1 pg/μg CELL DNA | 77 pg/ml CULTURE MEDIUM and 61 pg/ml CULTURE MEDIUM and 64 pg/ml CULTURE MEDIUM | 73 pg/ml CULTURE MEDIUM and 81 pg/ml CULTURE MEDIUM and 62 pg/ml CULTURE MEDIUM and 50 pg/ml CULTURE MEDIUM | 2.5 pg/μg CELL DNA and 2.8 pg/μg CELL DNA and 2.1 pg/μg CELL DNA and 2.4 pg/μg CELL DNA | 63 pg/ml CULTURE MEDIUM and 66 pg/ml CULTURE MEDIUM and 78 pg/ml CULTURE MEDIUM and 74 pg/ml CULTURE MEDIUM | 86 pg/ml CULTURE MEDIUM and 70 pg/ml CULTURE MEDIUM and 64 pg/ml CULTURE MEDIUM and 88 pg/ml CULTURE MEDIUM | 97 pg/ml CULTURE MEDIUM and 65 pg/ml CULTURE MEDIUM and 61 pg/ml CULTURE MEDIUM and 85 pg/ml CULTURE MEDIUM | – | 99 ± 1 % OF CONTROL | – | 100 ± 1 % OF CONTROL | 99 ± 1 % OF CONTROL | 3.6e+07 M⁻¹ | HBV VIRION DNA DAY 6 (HBV; 10 μM): 52 pg/ml CULTURE MEDIUM and 55 pg/ml CULTURE MEDIUM and 96 pg/ml CULTURE MEDIUM and 59 pg/ml CULTURE MEDIUM |
| Cn1cc(NC(=O)c2cc(NC(=O)CNC(=N)N)cn2C)cc1C(=O)NCCC(=N)N [Compound 1, reference compound] | – | – | – | – | – | – | – | – | – | – | – | – | 1.9e+07 M⁻¹ | Kapp (poly(dA-dT)): 9.4e+07 M⁻¹ |
